Test [1] has as its system pressurized resistance cerebral arteries. Kind of test: Artery diameter measurement, pressurized rat middle cerebral arteries. Particulars: 0.8 mM. How it is done:
Artery Diameter Measurement. Middle cerebral arteries were isolated from adult male Sprague-Dawley rats (=250 g) or 8- to 12-week-old β1-knockout and C57BL/6 control mice. Rats and mice were decapitated using a guillotine and sharp scissors, respectively. These procedures were approved by the Institutional Animal Care and Use Committee from The University of Tennessee Health Science Center, an AMLAC-accredited institution. Pressurization of arteries was performed as described (Liu et al., 2004). Endothelium was removed by passing an air bubble into the vessel lumen for 90 sec. Diameter changes were monitored through an inverted microscope (Nikon Eclipse TS100, Nikon Corp., Tokyo, Japan), recorded on camera (Sanyo VCB-3512T, Sanyo Electric Corp., Japan), and transferred to a computer. Diameter data were acquired and analyzed using IonWizard 4.4 software (IonOptics Corp., Milton, Mass., United States of America).
Pressurized arteries were extraluminally perfused with physiological saline solution (PSS) (Liu et al., 2004) at a constant rate of 3.75 ml/min using a peristaltic pump Dynamax RP-1 (Rainin Instrument, Inc., Oakland, Calif., United States of America). At this rate, complete washout of the iberiotoxin (Ibtx) effect required >45 min. To keep basal tone under steady behavior, we shortened this period by increasing flow rate ˜3 times during washout of Ibtx, which sometimes evoked a flow-induced dilation (FIG. 1A). Equal volumes (25 ml) of vehicle- vs. LC-containing solutions were applied at equal, constant rate (see above) to the pressurized arterial segment in the chamber via a gravity system. Drugs were dissolved to make stock solutions (see Chemicals) and diluted in PSS to final concentration.
Chemicals. All chemicals were purchased from Sigma (St. Louis, Mo., United States of America), with the exception of 5β-cholanic acid 3α-ol (LC) (Steraloids, Inc., Newport, R.I., United States of America) and Ibtx (Alomone Labs Ltd., Jerusalem, Israel). On the day of the experiment, an LC stock solution (333 mM) in dimethyl sulfoxide (DMSO) was freshly prepared by sonication for 5 min. For arterial tone experiments, the LC stock was diluted 1/10 in DMSO and further diluted in PSS to render final LC concentration. Solution containing vehicle (0.1% DMSO; V/V) was used as control perfusion. For electrophysiological recordings, the LC stock solution was diluted 1/10 in 95% ethanol and further diluted with bath solution to render final LC concentration (3-1,000 μM). The DMSO/ethanol vehicle (≦0.1/≦0.86% final concentrations) in bath solution was used as control.
Data Analysis. Artery diameter response to each compound is shown as a percentage of the diameter obtained before compound application. Arterial diameter and electrophysiological data were analyzed with IonWizard 4.4 (IonOptics Corp., Milton, Mass., United States of America) and pCLAMP 8.0 (Molecular Devices, Union City, Calif., United States of America). Further analysis, plotting, and fitting were conducted using Origin 7.0 (Originlab Corp., Northampton, Mass., United States of America) and InStat 3.0 (GraphPad Software Inc., San Diego, Calif., United States of America).
After myogenic tone development at 60 mm Hg, intact arteries reached a diameter of 154.4±5.2 μm (n=17). Maximal contraction and dilation were checked by perfusing the vessel with 60 mM KCl at the beginning, and Ca^2+-free solution at the end of each experiment (FIGS. 1A & 1B). In all cases (n=17), application of 45 μM LC, that is, concentrations well below LC's critical micellar concentration (CMC) (≧1 mM under our recording conditions) (Roda et al., 1995) caused a significant increase in peak arterial diameter: +6% on top of a transient increase in diameter caused by vehicle-containing solution (FIGS. 1A-1C). […]

In test [2] the test system is BK channels. Particulars: cited from earlier work.
Test [3] has as its target cbv1+β1 channels (UniProt Q16558+Q62976). Kind of test: Patch-clamp of heteromeric cbv1+β1 channels expressed in Xenopus oocytes. As to conditions: 10 μM; bath application to extracellular surface of O/O patches. It is filed as cell-based, rat. From the text: cRNA Preparation and Injection into Xenopus Oocytes. Full-length cDNA coding for cbv1-subunits was cloned from rat cerebral artery myocytes by PCR and ligated to the PCR-XL-TOPO cloning vector (Invitrogen Corp., Carlsbad, Calif., United States of America) (Jaggar et al., 2005). cDNA coding for cbv1-subunits was cleaved from the cloning vector by BamHI (Invitrogen Corp., Carlsbad, Calif., United States of America) and XhoI (Promega, Madison, Wis., United States of America) and directly inserted into the pOX vector for expression in Xenopus oocytes. pOX-cbv1 was linearized with NotI (Promega, Madison, Wis., United States of America) and transcribed in vitro using T3 polymerase. Beta,-subunit cDNA inserted into the EcoR I/Sal I sites of the pCl-neo expression vector was linearized with NotI and transcribed in vitro using T7 polymerase. Beta4-subunit cDNA inserted into the pOx vector was linearized by NotI and transcribed using T3 polymerase. The mMessage-mMachine kit (Ambion Inc., Austin, Tex., United States of America) was used for transcription. The pOX vector and the cDNA coding for β1-subunits were generous gifts from Aguan Wei (Washington University, Saint Louis, Mo., United States of America) and Maria Garcia (Merck Research Laboratories, Whitehouse Station, N.J., United States of America).
Oocytes were removed from Xenopus laevis and prepared as described (Dopico et al., 1998). cRNA was dissolved in […] at 5 (cbv1) and 15 (β1 or β4) ng/μl; 1-μl aliquots were stored at −70° C. Cbv1 cRNA was injected alone (2.5 ng/μp) or coinjected with either β1 or β4 (7.5 ng/μl) cRNAs, giving molar ratios ≧6:1 (β:α). cRNA injection (23 nl/oocyte) was conducted using a modified micropipette (Drummond Scientific Co., Broomall, Pa., United States of America). The interval between injection and patch-clamp recordings was 48-72 h.
Electrophysiology. Oocytes were prepared for patch-clamp recordings as described (Dopico et al., 1998). Single-channel and macroscopic currents were recorded from inside-out (I/O) or outside-out (O/O) patches. For experiments with oocytes, both bath and electrode solutions contained (mM) 135 K^+ gluconate, 5 EGTA, 1 MgCl2, 15 HEPES, 10 glucose, pH 7.35. For experiments with myocytes, KCl substituted for K^+ gluconate. In all experiments, free Ca^2+ in solution was adjusted to the desired value by adding CaCl2. In most studies, free Ca^2+ in electrode solution=10 μM. In O/O studies with 17β-estradiol, however, free Ca^2+ in the electrode solution=0.3 μM. Nominal free Ca^2+ was calculated with MaxChelator Sliders (C. Patton, Stanford University, California, United States of America) and validated experimentally using Ca^2+-selective electrodes (Corning Incorporated Science Products Division, Corning, N.Y., United States of America).
Patch-recording electrodes were made as described (Dopico et al., 1998). Immediately before recording, the tip of each electrode was fire-polished on a microforge WPI MF-200 (World Precision Instruments, Inc., Sarasota, Fla., United States of America) to give resistances of 5-9 MD when filled with solution. An agar bridge with gluconate or Cl^− as the main anion (for oocyte and myocyte experiments, respectively) was used as ground electrode. After excision from the cell, the membrane patch was exposed to a stream of bath solution containing each agent at final concentration. Solutions were applied onto the patches using a pressurized system DAD12 (ALA Scientific Instruments, New York, N.Y., United States of America) via a micropipette tip with an internal diameter of 100 μm. Experiments were carried out at room temperature (21° C.).
Currents were recorded using an EPC8 amplifier (HEKA Electronics, Lambrecht/Pfalz, Germany) at 1 kHz using a low-pass, eight-pole Bessel filter 902LPF (Frequency Devices, Haverhill, Mass., United States of America). […]
A general note: Patch clamp records ionic current or voltage across a cell membrane.

Each structure is given as a SMILES string.

These results are taken from US20080200439A1, “Methods and compositions for modulating BK channel activity and vasodilation” (University of Tennessee Research Foundation, priority 2006, published 2008).

Chain of cbv1+β1 channels (Q62976 1-1148 isoform Q62976-2): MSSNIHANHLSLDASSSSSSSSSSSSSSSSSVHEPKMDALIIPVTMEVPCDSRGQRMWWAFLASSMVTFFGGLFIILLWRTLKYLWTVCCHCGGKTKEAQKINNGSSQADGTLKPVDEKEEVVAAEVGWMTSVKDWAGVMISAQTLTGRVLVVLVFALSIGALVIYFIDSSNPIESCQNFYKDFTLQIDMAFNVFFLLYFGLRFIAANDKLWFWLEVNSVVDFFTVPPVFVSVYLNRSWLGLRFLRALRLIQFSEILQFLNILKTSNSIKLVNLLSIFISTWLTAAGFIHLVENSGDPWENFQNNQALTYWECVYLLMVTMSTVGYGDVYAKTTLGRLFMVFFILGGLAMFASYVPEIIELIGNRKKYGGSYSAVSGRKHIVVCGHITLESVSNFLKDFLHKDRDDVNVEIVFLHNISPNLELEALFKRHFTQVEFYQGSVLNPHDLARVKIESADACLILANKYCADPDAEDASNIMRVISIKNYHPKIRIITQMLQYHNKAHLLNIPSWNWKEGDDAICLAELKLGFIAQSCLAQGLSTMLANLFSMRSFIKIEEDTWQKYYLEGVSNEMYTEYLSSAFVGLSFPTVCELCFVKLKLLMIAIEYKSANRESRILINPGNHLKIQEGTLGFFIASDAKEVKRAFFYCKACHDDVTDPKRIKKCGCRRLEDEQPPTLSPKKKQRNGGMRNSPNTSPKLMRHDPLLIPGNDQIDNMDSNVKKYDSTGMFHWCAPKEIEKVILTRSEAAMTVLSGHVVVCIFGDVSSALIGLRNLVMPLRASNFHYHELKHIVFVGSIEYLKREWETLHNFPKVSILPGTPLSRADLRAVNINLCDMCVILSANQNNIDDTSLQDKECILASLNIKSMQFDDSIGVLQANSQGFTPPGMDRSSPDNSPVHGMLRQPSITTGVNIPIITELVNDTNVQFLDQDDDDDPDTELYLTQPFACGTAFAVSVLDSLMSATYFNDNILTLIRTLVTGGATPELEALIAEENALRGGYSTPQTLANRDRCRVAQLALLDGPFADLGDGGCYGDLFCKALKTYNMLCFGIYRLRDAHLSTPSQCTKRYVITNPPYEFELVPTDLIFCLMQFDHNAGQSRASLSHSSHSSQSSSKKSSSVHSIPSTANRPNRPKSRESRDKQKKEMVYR
Chain of cbv1+β1 channels (Q16558 whole entry): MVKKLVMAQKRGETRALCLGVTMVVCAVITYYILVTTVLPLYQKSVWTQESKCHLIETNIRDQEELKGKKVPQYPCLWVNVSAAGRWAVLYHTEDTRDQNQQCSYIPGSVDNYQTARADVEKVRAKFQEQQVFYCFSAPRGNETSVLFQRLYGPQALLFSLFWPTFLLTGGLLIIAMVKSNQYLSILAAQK

Consider `Nc1ccncc1` [4-AP, 4-aminopyridine, reference compound], for which, in test [1], the Decrease in diameter is given as −9.7±2.3%.
In the case of `CC/C(=C(\c1ccccc1)c1ccc(OCCN(C)C)cc1)c1ccccc1` [tamoxifen, Tamoxifen], in test [2] (Duncan, 2005), the “Concentrations decreasing unitary current amplitude (as low as)” value is 1 to 10 µM.
Regarding `C[C@]12CC[C@@H]3c4ccc(O)cc4CC[C@H]3[C@@H]1CC[C@@H]2O` [17β-estradiol], the “Effect on channel activity” value in test [3] is listed as “channel activation”. For the same compound, in test [2] (Korovkina et al., 2004), the “Concentrations modulating BK activity through the channel α-subunit” value was 0.01 to 1 µM. Moreover, in test [2] (Valverde et al., 1999), the “Concentrations increasing BK (hslo) channel activity by interacting with the β1-subunit” value is 1 to 30 µM.
